Reference: patent US11690818B2, “Drug containing liver targeting specific ligand and thyroid hormone receptor agonist” (priority 2018, dated 2023)

Legend:
db/db mice [1] = assay: Example 4: bone mineral density and body weight of db/db mice; type: in vivo; conditions: Kylo-0100 13.5, Kylo-0101 48.4 μg/kg sc daily
Procedure: (§1) The mice needed to adapt to the environment before the experiment, and healthy mice were selected as test animals, and reared in IVC cages at a density of 5 animals/cage with the litter being changed twice a week.
The body weight was weighed twice a week, and the administration was carried out continuously for 21 days. […] The blood was collected by cardiac puncture, left to stand at room temperature for 2 hours, and centrifuged on a low temperature centrifuge at 3000 RPM for 10 minutes to collect serum, which was then stored in a −80° C. refrigerator for later use. The contents of total cholesterol (TC), low-density lipoprotein (LDL) and triglyceride (TG) in the serum were measured on a blood biochemical analyzer.
On the 18th day of the administration, the mice were intraperitoneally injected with the anesthetic (xylazine combined with ketamine, 10 ml/Kg, IP), and the bone mineral density and body fat ratio of the mice were measured on a bone density meter.

db/db mice [2] = assay: Example 4: serum TC, LDL and TG in db/db mice; type: in vivo; conditions: subcutaneous injection daily for 21 days, Kylo-0100 13.5, Kylo-0101 48.4, Kylo-0102 43.3, Kylo-0103 43.3 μg/kg, vs saline control group
Procedure: as §1
The body weight was weighed twice a week, and the administration was carried out continuously for 21 days. After the last administration, the mice were fasted overnight for 15-16 hours, sacrificed by CO2 anesthesia. The blood was collected by cardiac puncture, left to stand at room temperature for 2 hours, and centrifuged on a low temperature centrifuge at 3000 RPM for 10 minutes to collect serum, which was then stored in a −80° C. refrigerator for later use. The contents of total cholesterol (TC), low-density lipoprotein (LDL) and triglyceride (TG) in the serum were measured on a blood biochemical analyzer.

| SMILES | bone mineral density (BMD) (db/db mice [1]; 18th day of administration, vs saline control group) | effect on the body weight of mice (db/db mice [1]; 21 days) | serum TC level reduction rate (db/db mice [2]) | serum TG level reduction rate (db/db mice [2]) | serum LDL level reduction rate (db/db mice [2]) |
| --- | --- | --- | --- | --- | --- |
| N[C@@H](Cc1cc(I)c(Oc2ccc(O)c(I)c2)c(I)c1)C(=O)O [Kylo-0100, triiodothyronine] | significantly lower than that of the saline control group | significant effect | 34.68% | 42.55% |  |
| CC(=O)NC1C(OCCCCC(=O)NCCCNC(=O)CCOCC(COCCC(=O)NCCCNC(=O)CCCCOC2OC(CO)C(O)C(O)C2NC(C)=O)(COCCC(=O)NCCCNC(=O)CCCCOC2OC(CO)C(O)C(O)C2NC(C)=O)NC(=O)CCCCCNC(=O)[C@H](Cc2cc(I)c(Oc3ccc(O)c(I)c3)c(I)c2)NC(=O)OC(C)(C)C)OC(CO)C(O)C1O (stereo partly shown) [Kylo-0103] |  |  | 44.37% | 43.94% | 15.25% |
